Values after ≈ are worked out from the molar mass of the structure shown. Where two headings read alike, the source gives them in different places.
Assays:
OM-1 (colon) = experiment: Radiometric growth inhibition of tumor cells, OM-1; assay type: cell-based, human; parameters: % SURVIVAL TUMOR: concentration or dose not given beside the values; conditions: for IC50: Homo sapiens
Text: (§1) CELL LINES: Eight different established human cell lines CALU (lung), COLO320 (colon), H578St (breast), HT-29 (colon), MCF-7 (breast), OM-1 (colon), SKLU (lung) and SKMES(lung), and two control cell lines (bone marrow and/or fibroblast cells) were utilized. All cell lines were obtained from the Tumor Cloning Laboratory, Institute for Drug Development, Cancer Therapy and Research Center, San Antonio, Tex. All cell lines grew as monolayers in the appropriate culture medium supplemented with heat-inactivated calf serum. All reagents were obtained from Grand Island Biological Co., Grand Island, N.Y.
(§2) The iv formulations of the compounds of the present invention were prepared with sterile buffered saline and stored at -70° C. until required for testing.
(§3) Following trypsinization, tumor cells were suspended in tissue culture medium and exposed to the antitumor agents continuously at three different concentrations: 10, 1 and 0.1 μg/ml.
(§4) RADIOMETRIC MEASUREMENT OF GROWTH INHIBITION: Growth inhibition was assessed with the BACTEC System 460 (Johnston Laboratories, Towson, Md.) after addition of the antitumor agent to the cell in the respective growth medium containing ^14 C-glucose at a final concentration of 2 μCi/ml.
(§5) Two mls of the tumor cell suspension containing radioactive glucose were seeded into sterile, disposable 15 ml vials by injection through self-sealing rubber-aluminum caps. […] The seeded vials were then incubated at 37° C. Measurement of the release of ^14 CO2 resulting from the metabolism of ^14 C-glucose were performed on days 6, 9, 12 and 15 in the BACTEC instrument. This instrument flushes the ^14 CO2 containing air out of the vials into an ionization chamber that converts dpm to growth index values. […] Each data point represents triplicate values.
(§6) All compounds were dosed on an equimilimolar basis.

[1] = In vitro survival of bone marrow control cells (radiometric BACTEC); assay type: cell-based; parameters: concentration or dose not given beside the values
Text: as §1, §2, §3, §4, §5, §6

COLO320 (colon) = experiment: Radiometric growth inhibition of tumor cells, COLO320; assay type: cell-based, human; parameters: % SURVIVAL TUMOR: concentration or dose not given beside the values; conditions: for % SURVIVAL TUMOR: continuous exposure; for IC50: Homo sapiens, COLO 320
Text: as §1, §2, §3, §4, §5, §6

SKLU (lung) = experiment: Radiometric growth inhibition of tumor cells, SKLU; assay type: cell-based, human; parameters: % SURVIVAL TUMOR: concentration or dose not given beside the values; conditions: for IC50: Homo sapiens
Text: as §1, §2, §3, §4, §5, §6

CALU (lung) = experiment: Radiometric growth inhibition of tumor cells, CALU; assay type: cell-based, human
Text: as §1, §2, §3, §4, §5, §6

MCF-7 (breast) = experiment: Radiometric growth inhibition of tumor cells, MCF-7; assay type: cell-based, human; parameters: % SURVIVAL TUMOR: concentration or dose not given beside the values; conditions: MCF-7
Text: as §1, §2, §3, §4, §5, §6

HS578T (breast) = experiment: Radiometric growth inhibition of tumor cells, HS578T; assay type: cell-based, human; conditions: HS578T; for % SURVIVAL TUMOR: continuous exposure; for IC50: Homo sapiens, Hs-578T, concentration required to kill 50%, read-out: IC 50
Text: as §1, §2, §3, §4, §5, §6

HT29 (colon) = experiment: Radiometric growth inhibition of tumor cells, HT29; assay type: cell-based, human; parameters: % SURVIVAL TUMOR: concentration or dose not given beside the values; conditions: for IC50: Homo sapiens, HT-29, concentration required to kill 50%, read-out: IC 50
Text: as §1, §2, §3, §4, §5, §6

[2] = OM-1, concentration required to kill 50%, read-out: IC 50
[3] = bone marrow control cells, continuous exposure, read-out: % SURVIVAL BONE MARROW
[4] = SKLU, concentration required to kill 50%, read-out: IC 50
[5] = COLO320, concentration required to kill 50%, read-out: IC 50

Compound	IC50 (OM-1 (colon); [2]) [µg/mL]	% SURVIVAL TUMOR (OM-1 (colon); OM-1, continuous exposure) [%]	viability [1, 3] [%]	% SURVIVAL TUMOR (SKLU (lung); SKLU, continuous exposure) [%]	IC50 (SKLU (lung); [4]) [µg/mL]	viability ([1]; bone marrow cells) [%]	further results
O=c1ccn2c(n1)O[C@H]1[C@@H](O)[C@H](CO)O[C@H]12 [O^2,O^2' -Anhydro-1-α-L-ribofuranosyluracil]	2.97 (≈ 13.1 µM)	46.4	70.9				
Nc1ccn([C@@H]2O[C@@H](CO)[C@H](O)[C@@H]2O)c(=O)n1 [α-L-ribofuranosyl cytosine, 1-α-L-Ribofuranosylcytosine]			120	88.8			% SURVIVAL TUMOR (COLO320 (colon); COLO320): 82.3%; IC50 (COLO320 (colon)): 34.9 µg/mL (≈ 143 µM); IC50 (SKLU (lung)): 240 µg/mL (≈ 987 µM)
O=c1[nH]c(=O)n([C@@H]2O[C@@H](CO)[C@H](O)[C@@H]2O)cc1F [α-L-ribofuranosyl-5-fluorouracil, 1-α-L-ribofuranosyl-5-fluorouracil]	0.87 (≈ 3.32 µM)	0.4	94.6	71	43.4 (≈ 166 µM)		
O=c1ccn([C@@H]2O[C@@H](CO)[C@H](O)[C@@H]2O)c(=O)[nH]1 [α-L-ribofuranosyl-uracil, 1-α-L-Ribofuranosyluracil]						96.6	IC50 (CALU (lung); Homo sapiens, CALU, concentration required to kill 50%, read-out: IC 50): > 10 µg/mL; % SURVIVAL TUMOR (CALU (lung); human, calu lung tumor cells): 89.1%
O=c1[nH]cnc2c1ncn2[C@H]1O[C@@H](CO)[C@H](O)[C@@H]1O [β-:-ribofuranosyl hypoxanthine, 9-β-L-Ribofuranosylhypoxanthine]	82.7 (≈ 308 µM)	87.3	118	82.5	48.1 (≈ 179 µM)		IC50 (MCF-7 (breast); Homo sapiens, MCF7, concentration required to kill 50%, read-out: IC 50): 38.1 µg/mL (≈ 142 µM); % SURVIVAL TUMOR (MCF-7 (breast); continuous exposure): 96.8%; % SURVIVAL TUMOR (HS578T (breast)): 93.4%; IC50 (HS578T (breast)): > 10 µg/mL; % SURVIVAL TUMOR (COLO320 (colon); COLO320): 68.2%; IC50 (COLO320 (colon); [5]): 17.9 µg/mL (≈ 66.7 µM)
Nc1ncnc2c1ncn2[C@H]1O[C@@H](CO)[C@H](O)[C@@H]1O [β-L-ribofuranosyl adenine, 9-β-L-Ribofuranosyladenine]	4.23 (≈ 15.8 µM)					91.2	% SURVIVAL TUMOR (OM-1 (colon); human, om-1 colon tumor cells): 50.9%
Nc1ccn([C@H]2O[C@@H](CO)[C@H](O)[C@@H]2O)c(=O)n1 [β-L-ribofuranosyl cytosine, 1-β-L-Ribofuranosylcytosine]		39.2	72.6				IC50 (OM-1 (colon)): 5.9 µg/mL (≈ 24.3 µM)
Nc1nc(O)c2ncn([C@H]3O[C@@H](CO)[C@H](O)[C@@H]3O)c2n1 [β-L-ribofuranosyl guanine, 9-β-L-Ribofuranosylguanine]	0.097 (≈ 0.342 µM)	44.7	170				% SURVIVAL TUMOR (HT29 (colon); HT29, continuous exposure): 80.9%; IC50 (HT29 (colon); HT29): > 10 µg/mL
O=c1ccn([C@H]2O[C@@H](CO)[C@H](O)[C@@H]2O)c(=O)[nH]1 [β-L-ribofuranosyl uracil, 1-β-L-Ribofuranosyluracil]	0.094 (≈ 0.385 µM)					112	% SURVIVAL TUMOR (OM-1 (colon); human, om-1 colon tumor cells): 30.8%; IC50 (HT29 (colon); HT29): > 10 µg/mL; % SURVIVAL TUMOR (HT29 (colon); human, ht29 colon tumor cells): 78.7%
O=c1[nH]c(=O)n([C@H]2O[C@@H](CO)[C@H](O)[C@@H]2O)cc1F [β-L-ribofuranosyl-5-fluorouracil, 1-β-L-Ribofuranosyl-5-fluorouracil]	37.8 (≈ 144 µM)	71.9	130	69.7	32.2 (≈ 123 µM)		% SURVIVAL TUMOR (HT29 (colon); HT29, continuous exposure): 64.7%; IC50 (HT29 (colon); HT29): 51 µg/mL (≈ 195 µM); % SURVIVAL TUMOR (COLO320 (colon); COLO320): 81.9%; IC50 (COLO320 (colon); [5]): 188 µg/mL (≈ 717 µM)
Nc1nc(S)c2ncn([C@H]3O[C@@H](CO)[C@H](O)[C@@H]3O)c2n1 [β-L-ribofuranosyl-6-thioguanine, 9-β-L-Ribofuranosyl-6-thioguanine]	42.7 (≈ 143 µM)				8.7 (≈ 29.1 µM)	97.4	% SURVIVAL TUMOR (HS578T (breast)): 66.6%; IC50 (HS578T (breast)): 17.1 µg/mL (≈ 57.1 µM); % SURVIVAL TUMOR (OM-1 (colon); human, om-1 colon tumor cells): 83.1%; % SURVIVAL TUMOR (SKLU (lung); human, sklu lung tumor cells): 45.1%

Reference: patent US5559101A, “L-ribofuranosyl nucleosides” (priority 1994, dated 1996)
